# Where two headings read alike, the source gives them in different places.
# Experiments:
# [1] = tested on: Sinapis arvensis; experiment: herbicidal activity, Erde Nachauflauf; assay type: in vivo; details: Mutarda arvensis
# Method: (§1) The determination of herbicidal activity is performed according to standard procedure. Again the compounds listed on page 9 are tested.
# [2] = tested on: Avena fatua; experiment: herbicidal activity, Erde Nachauflauf; assay type: in vivo
# Method: as §1
# [3] = tested on: Galium aperine; experiment: herbicidal activity, Erde Nachauflauf; assay type: in vivo
# Method: as §1
# [4] = tested on: Zea mays; experiment: herbicidal activity, Erde Nachauflauf; assay type: in vivo
# Method: as §1
# [5] = tested on: Xanthium strumarium; experiment: herbicidal activity, Erde Nachauflauf; assay type: in vivo
# Method: as §1
# [6] = tested on: Cyperus esculentus; experiment: herbicidal activity, Erde Nachauflauf; assay type: in vivo
# Method: as §1
# [7] = tested on: Amaranthus retroflexus; experiment: herbicidal activity, Erde Nachauflauf; assay type: in vivo
# Method: as §1
# [8] = tested on: Abutilon theophrasti; experiment: herbicidal activity, Erde Nachauflauf; assay type: in vivo
# Method: as §1
# [9] = tested on: Alopecurus myosuroides; experiment: herbicidal activity, Erde Nachauflauf; assay type: in vivo
# Method: as §1
# [10] = tested on: Beta vulgaris; experiment: herbicidal activity, Erde Nachauflauf; assay type: in vivo
# Method: as §1
# [11] = tested on: Setaria viridis; experiment: herbicidal activity, Erde Nachauflauf; assay type: in vivo
# Method: as §1
# [12] = tested on: Solanum; experiment: herbicidal activity, Hydro Vorauflauf; assay type: in vivo
# Method: as §1
# [13] = tested on: Lepidium; experiment: herbicidal activity, Hydro Vorauflauf; assay type: in vivo
# Method: as §1
# [14] = tested on: Reis; experiment: herbicidal activity, Hydro Vorauflauf; assay type: in vivo
# Method: as §1
# [15] = tested on: Echinochloa; experiment: herbicidal activity, Hydro Vorauflauf; assay type: in vivo
# Method: as §1
# [16] = tested on: Pseudomonas aeruginosa; experiment: antibacterial activity, minimum inhibition concentration in liquid culture; assay type: cell-based; details: read-out: MIC(nM) of bacteria culture (Pseudomonas aeruginosa)
# Method: A dilution series comprising the concentrations 500, 100, 50, 10 and 0 μmol 1^−1 of the individual compounds in LB medium is introduced into 5 culture microtubes in a volume of 0,5 ml. The tubes were inoculated with 10 μl of an overnight culture of E. coli K12 and shaken overnight at 37° C. The growth of the bacteria was assessed on the basis of the turbidity of the medium. The minimum concentration causing inhibition of bacterial growth was determined (minimum inhibition concentration MIC)
# The antibacterial activity of P. aeruginosa was determined in the same manner.
# [17] = biological target: T1, DOXP reductoisomerase of Escherichia coli (UniProt P56139); experiment: inhibition of recombinant DOXP reductoisomerase (NADPH oxidation); assay type: biochemical; details: 1 mM DOXP, 0,3 mM NADPH, pH 7,5; read-out: IC50(nM) of DOXP reductoisomerase from Helicobacter pilori
# T1 sequence (P56139 1-368): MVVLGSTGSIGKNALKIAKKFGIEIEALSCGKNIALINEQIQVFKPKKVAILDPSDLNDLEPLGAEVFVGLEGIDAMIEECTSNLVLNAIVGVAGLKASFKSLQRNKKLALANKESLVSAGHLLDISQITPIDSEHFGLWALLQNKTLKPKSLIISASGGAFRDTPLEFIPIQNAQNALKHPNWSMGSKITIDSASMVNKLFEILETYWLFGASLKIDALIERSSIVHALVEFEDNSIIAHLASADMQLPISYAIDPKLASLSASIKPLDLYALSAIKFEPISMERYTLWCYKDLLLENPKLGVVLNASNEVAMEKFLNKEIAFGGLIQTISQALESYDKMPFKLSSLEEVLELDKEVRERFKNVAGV
# [18] = tested on: Sinapis arvensis; experiment: herbicidal activity, Erde Vorauflauf; assay type: in vivo; details: Mutarda arvensis
# Method: as §1
# [19] = tested on: Avena fatua; experiment: herbicidal activity, Erde Vorauflauf; assay type: in vivo
# Method: as §1
# [20] = tested on: Galium aperine; experiment: herbicidal activity, Erde Vorauflauf; assay type: in vivo
# Method: as §1
# [21] = tested on: Zea mays; experiment: herbicidal activity, Erde Vorauflauf; assay type: in vivo
# Method: as §1
# [22] = tested on: Xanthium strumarium; experiment: herbicidal activity, Erde Vorauflauf; assay type: in vivo
# Method: as §1
# [23] = tested on: Cyperus esculentus; experiment: herbicidal activity, Erde Vorauflauf; assay type: in vivo
# Method: as §1
# [24] = tested on: Amaranthus retroflexus; experiment: herbicidal activity, Erde Vorauflauf; assay type: in vivo
# Method: as §1
# [25] = tested on: Abutilon theophrasti; experiment: herbicidal activity, Erde Vorauflauf; assay type: in vivo
# Method: as §1
# [26] = tested on: Alopecurus myosuroides; experiment: herbicidal activity, Erde Vorauflauf; assay type: in vivo
# Method: as §1
# [27] = tested on: Beta vulgaris; experiment: herbicidal activity, Erde Vorauflauf; assay type: in vivo
# Method: as §1
# [28] = tested on: Setaria viridis; experiment: herbicidal activity, Erde Vorauflauf; assay type: in vivo
# Method: as §1
# [29] = tested on: Plasmodium falciparum; experiment: antimalaria activity on in vitro cultures, [3H]-hypoxanthine incorporation; assay type: cell-based; details: 72 h, inhibition of [3H]-hypoxanthine incorporation, 48 + 24 hours, read-out: IC50(nM) of malaria culture (Plasmodium falciparum)
# Method: The antimalaria activity of the compounds listed on page 9 was determined on in vitro cultures of the malaria pathogen Plasmodium falciparum. The depressions of a 96-well microtitre plate were charged with in each case 200 μl of an asynchroneous Plasmodium falciparum culture at a parasitaemia of 0,4% and haematokrit of 2%. A serial dilution series of the compounds in triple steps between concentrations of 100 to 0,14 μmol 1^−1 was then prepared. The plates were incubated at 37° C., 3% CO2 and 5% O2 over a period of 48 hours. 30 μl medium supplemented with 27 μCi ml^−1 [^3H]-hypoxanthine were then added to each well. After incubation for 24 hours the parasites were harvested by filtration on a glass fibre filter and the radioactivity which had been incorporated was measured. The inhibition of the growth of parasites was measured as the percentage inhibition of the incorporation of tritium. Inhibition of the growth of the parasites has been determined as percentage inhibition of incorporation of tritium based on a comparison without the substance. The half-maximum inhibitory concentration (IC50) of the substance was determined by extrapolation of the values.
compound,measurement,setting,value
O=C1CCON1CC(O)CP(=O)(O)O (stereo not shown) [Compound 2],pest or weed control at 500 g/ha,[1]; 500 Gramm/Hektar,30%
same,pest or weed control at 500 g/ha,[2]; 500 Gramm/Hektar,30%
same,pest or weed control at 500 g/ha,[3]; 500 Gramm/Hektar,0%
same,plant injury at 500 g/ha,[4]; 500 Gramm/Hektar,0%
same,pest or weed control at 500 g/ha,[5]; 500 Gramm/Hektar,50%
same,pest or weed control at 500 g/ha,[6]; 500 Gramm/Hektar,0%
same,pest or weed control at 500 g/ha,[7]; 500 Gramm/Hektar,0%
same,pest or weed control at 500 g/ha,[8]; 500 Gramm/Hektar,0%
same,pest or weed control at 500 g/ha,[9]; 500 Gramm/Hektar,0%
same,plant injury at 500 g/ha,[10]; 500 Gramm/Hektar,0%
same,pest or weed control at 500 g/ha,[11]; 500 Gramm/Hektar,90%
same,pest or weed control at 1000 g/ha,[12]; 1000 Gramm/Hektar,0%
same,pest or weed control at 1000 g/ha,[13]; 1000 Gramm/Hektar,0%
same,pest or weed control at 1000 g/ha,[14]; 1000 Gramm/Hektar,0%
same,pest or weed control at 1000 g/ha,[15]; 1000 Gramm/Hektar,0%
same,MIC,[16],1600 nM
same,IC50,[17],110 nM
same,pest or weed control at 500 g/ha,[18]; 500 Gramm/Hektar,0%
same,pest or weed control at 500 g/ha,[19]; 500 Gramm/Hektar,0%
same,pest or weed control at 500 g/ha,[20]; 500 Gramm/Hektar,0%
same,plant injury at 500 g/ha,[21]; 500 Gramm/Hektar,0%
same,pest or weed control at 500 g/ha,[22]; 500 Gramm/Hektar,0%
same,pest or weed control at 500 g/ha,[23]; 500 Gramm/Hektar,0%
same,pest or weed control at 500 g/ha,[24]; 500 Gramm/Hektar,0%
same,pest or weed control at 500 g/ha,[25]; 500 Gramm/Hektar,0%
same,pest or weed control at 500 g/ha,[26]; 500 Gramm/Hektar,0%
same,plant injury at 500 g/ha,[27]; 500 Gramm/Hektar,0%
same,pest or weed control at 500 g/ha,[28]; 500 Gramm/Hektar,0%
same,IC50,[29],1200 nM
CC(C)N(C)CCCN1OCCC1=O [Compound 7],pest or weed control at 2000 g/ha,[1]; 2000 Gramm/Hektar,80%
same,pest or weed control at 2000 g/ha,[2]; 2000 Gramm/Hektar,80%
same,pest or weed control at 2000 g/ha,[3]; 2000 Gramm/Hektar,95%
same,plant injury at 2000 g/ha,[4]; 2000 Gramm/Hektar,70%
same,pest or weed control at 2000 g/ha,[5]; 2000 Gramm/Hektar,90%
same,pest or weed control at 2000 g/ha,[6]; 2000 Gramm/Hektar,0%
same,pest or weed control at 2000 g/ha,[7]; 2000 Gramm/Hektar,50%
same,pest or weed control at 2000 g/ha,[8]; 2000 Gramm/Hektar,50%
same,pest or weed control at 2000 g/ha,[9]; 2000 Gramm/Hektar,80%
same,plant injury at 2000 g/ha,[10]; 2000 Gramm/Hektar,70%
same,pest or weed control at 2000 g/ha,[11]; 2000 Gramm/Hektar,90%
same,pest or weed control at 4000 g/ha,[12]; 4000 Gramm/Hektar,30%
same,pest or weed control at 4000 g/ha,[13]; 4000 Gramm/Hektar,0%
same,pest or weed control at 4000 g/ha,[14]; 4000 Gramm/Hektar,30%
same,pest or weed control at 4000 g/ha,[15]; 4000 Gramm/Hektar,40%
same,MIC,"[16]; LB medium, overnight at 37° C., turbidity",9000 nM
same,IC50,[17],18 nM
same,pest or weed control at 2000 g/ha,[18]; 2000 Gramm/Hektar,30%
same,pest or weed control at 2000 g/ha,[19]; 2000 Gramm/Hektar,30%
same,pest or weed control at 2000 g/ha,[20]; 2000 Gramm/Hektar,0%
same,plant injury at 2000 g/ha,[21]; 2000 Gramm/Hektar,30%
same,pest or weed control at 2000 g/ha,[22]; 2000 Gramm/Hektar,0%
same,pest or weed control at 2000 g/ha,[23]; 2000 Gramm/Hektar,0%
same,pest or weed control at 2000 g/ha,[24]; 2000 Gramm/Hektar,20%
same,pest or weed control at 2000 g/ha,[25]; 2000 Gramm/Hektar,0%
same,pest or weed control at 2000 g/ha,[26]; 2000 Gramm/Hektar,30%
same,plant injury at 2000 g/ha,[27]; 2000 Gramm/Hektar,70%
same,pest or weed control at 2000 g/ha,[28]; 2000 Gramm/Hektar,0%
same,IC50,[29],400 nM
